Test results reported in US20260374781A1, “NOVEL TRIHETEROCYCLIC COMPOUNDS” (IDENCE CO., LTD., priority 2022, published 2026).

Key:
KRAS G12D = target: T1, KRAS G12D (Homo sapiens, UniProt P01116, G12D); assay: KRAS Nucleotide Exchange Assay (SOS1-mediated), G12D; format: biochemical; conditions: HTRF, 20 nM KRAS, 12.5 nM SOS1, 60 minutes preincubation, approximately 25 minutes reaction
T1 construct: GST-tagged KRAS WT or mutant protein (amino acids 2-169)
Excerpt: (§1) Test Example 1: KRAS Nucleotide Exchange Assay
(§2) Evaluation of the inhibitory effect of compounds on SOS1-mediated nucleotide exchange activity of KIRAS^WT, KRAS^G12D, KRAS^G12V, KRAS^G12C and KRAS^G13D mutants
(§3) The assay monitors SOS1 mediated exchange of KRAS bound unlabeled GDP to fluorescently labeled GTP. The detection is based on the transfer of energy between two fluorophores when they are in close proximity. Donor is the Tb cryptate labeled anti-GST antibody and acceptor is a DY-647P1 GTP.
(§4) • GST-tagged KRAS WT or mutant protein (amino acids 2-169), • SOS1 (amino acids 564-1049), • Labeled GTP (GTP-DY-647P1), • Assay Buffer (20 mM HEPES pH 7.4, 150 mM NaCl, 5 mM MgCl2, 1 mM DTT, 0.05% BSA, 0.0025% NP40)
(§5) • 1. KRAS protein was diluted with assay buffer to reach 1.5 times of the final concentration, then mixed with Tb cryptate anti-GST antibody and added at 10 μL to each assay well (all of the final concentration was 20 nM for KRAS^WT, KRAS^G12D, and KRAS^G12V) • 2. The compound was dissolved in DMSO and diluted to prepare 100 times of the final concentration. • 3. Compounds were dispensed into assay wells using an ECHO acoustic dispenser (Beckman), mixed gently with the KRAS/Ab mixture, and incubated for 60 minutes. • 4. SOS1 and labeled GTP were mixed, diluted to 3 times of the final concentration with assay buffer, and 5 μL of the solution was added to the assay well to initiate the reaction (final concentration of labeled GTP was […], final concentration of SOS1 was 7.5 nM in WT, 12.5 nM in G12D and 50 nM in G12V). Only assay buffer and labeled GTP were added to the blank well. • 5. The reaction was monitored at Ex/Em=(337/665; 337/620) using a Pherastar Plate Reader (BMG). • 6. HTRF signals were analyzed approximately 25 minutes after the start of the reaction (60 minutes reaction for G12V). • 7. Nucleotide exchange activity is expressed as a percentage difference compared to the DMSO reaction value, and the IC50 value was calculated based on the four-parameter logistic equation in GraphPad 4.0 software.

KRAS G12V = target: T2, KRAS G12V (Homo sapiens, UniProt P01116, G12V); assay: KRAS Nucleotide Exchange Assay (SOS1-mediated), G12V; format: biochemical; conditions: HTRF, 20 nM KRAS, 50 nM SOS1, 60 minutes preincubation, 60 minutes reaction
T2 construct: GST-tagged KRAS WT or mutant protein (amino acids 2-169)
Excerpt: as §1, §2, §3, §4, §5

KRAS G12C = target: T3, KRAS G12C (Homo sapiens, UniProt P01116, G12C); assay: KRAS Nucleotide Exchange Assay (SOS1-mediated), G12C; format: biochemical; conditions: HTRF, 60 minutes preincubation, approximately 25 minutes reaction
T3 construct: GST-tagged KRAS WT or mutant protein (amino acids 2-169)
Excerpt: as §1, §2, §3, §4, §5

KRAS G13D = target: T4, KRAS G13D (Homo sapiens, UniProt P01116, G13D); assay: KRAS Nucleotide Exchange Assay (SOS1-mediated), G13D; format: biochemical; conditions: HTRF, 60 minutes preincubation, approximately 25 minutes reaction
T4 construct: GST-tagged KRAS WT or mutant protein (amino acids 2-169)
Excerpt: as §1, §2, §3, §4, §5

AsPC-1 cells = assay: Cell Proliferation Assay, AsPC-1 (CellTiter-Glo 2.0 viability); format: cell-based; conditions: AsPC-1 pancreatic cancer (KRAS G12D mutation)
Experimental: (§6) Test Example 3: Cell Proliferation Assay
(§7) Cell viability testing of test compounds in AsPC-1 pancreatic cancer (KRAS G12D mutation) or SW480 colon cancer (KRAS G12V mutation) cells for 72 hours
(§8) The reference compound Staurosporine was purchased from Sigma-Aldrich (Saint Louis, MI), and CellTiter-Glo® 2.0 Luminescent cell viability assay reagent (cat #G9243) was purchased from Promega (Madison, WI). AsPC-1 and SW480 cell lines were purchased from American Type Culture Collection (Manassas, VA). AsPC-1 cells were cultured with RPMI-1640 (ATCC, cat #30-2001) and SW480 cells were cultured with DMEM (ATCC cat #30-2002).
(§9) A medium supplemented with 10% FBS (Sigma-Aldrich, cat #F2442) and 100 µg/mL of penicillin-streptomycin (Sigma-Aldrich, cat #P4333) was used. Cells were cultured at 37 °C in a humidified atmosphere of 5% CO2 and 95% air.
(§10) • 1. The test compound and reference compound, Staurosporine were dissolved in DMSO solution to prepare 20 mM (test compound) and 10 mM (control compound, Staurosporine) in the Source Plate and diluted with DMSO to 3-fold and 10 doses. • 2. From the Source Plate, 10 volumes of 125 nL test compound or 25 nL reference compound were dispensed into wells of a 384-well culture plate (VWR, cat #82050-076) using Echo 655. • 3. 25 μL of culture medium including 2000 AsPC-1 or SW480 cells was dispensed into each 384-well cell culture plate. • 4. Cells were cultured with the compound for 72 hours at 37 °C and 5% CO2 conditions. • 5. 25 μL of CellTiter-Glo 2.0 reagent was added to each well of the plate. • 6. The contents were mixed for 2 minutes on an orbital shaker, and the luminescence signal was stabilized at room temperature for 15 minutes. • 7. Luminescence signals were measured with an Envision 2104 Multilabel Reader (PerkinElmer, Santa Clara, CA), and the number of surviving cells was determined through quantification of ATP present in each culture. • 8. IC50 values were calculated based on the Sigmoidal dose-response equation in the GraphPad Prism 4 program.

SW480 cells = assay: Cell Proliferation Assay, SW480 (CellTiter-Glo 2.0 viability); format: cell-based; conditions: Homo sapiens; SW480 colon cancer (KRAS G12V mutation); 72 hours
Experimental: as §6, §7, §8, §9, §10

KRAS WT = target: T5, KRAS WT (Homo sapiens, UniProt P01116); assay: KRAS Nucleotide Exchange Assay (SOS1-mediated), WT; format: biochemical; conditions: HTRF, 20 nM KRAS, 7.5 nM SOS1, 60 minutes preincubation, approximately 25 minutes reaction
T5 construct: GST-tagged KRAS WT or mutant protein (amino acids 2-169)
Excerpt: as §1, §2, §3, §4
• 1. […] The reaction was monitored at Ex/Em=(337/665; 337/620) using a Pherastar Plate Reader (BMG). • 6. HTRF signals were analyzed approximately 25 minutes after the start of the reaction (60 minutes reaction for G12V). • 7. Nucleotide exchange activity is expressed as a percentage difference compared to the DMSO reaction value, and the IC50 value was calculated based on the four-parameter logistic equation in GraphPad 4.0 software.

T1 sequence (P01116 2-169 isoform P01116-2 G12D): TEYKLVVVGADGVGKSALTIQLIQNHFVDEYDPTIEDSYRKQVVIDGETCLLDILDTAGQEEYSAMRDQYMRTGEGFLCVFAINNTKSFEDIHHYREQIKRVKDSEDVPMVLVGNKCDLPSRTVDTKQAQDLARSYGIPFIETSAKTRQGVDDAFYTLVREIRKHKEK
T2 sequence (P01116 2-169 isoform P01116-2 G12V): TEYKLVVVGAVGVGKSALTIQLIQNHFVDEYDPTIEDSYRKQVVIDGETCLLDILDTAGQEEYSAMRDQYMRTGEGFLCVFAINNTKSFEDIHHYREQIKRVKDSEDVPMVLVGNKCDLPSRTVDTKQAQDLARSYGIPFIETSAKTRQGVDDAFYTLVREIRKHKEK
T4 sequence (P01116 2-169 isoform P01116-2 G13D): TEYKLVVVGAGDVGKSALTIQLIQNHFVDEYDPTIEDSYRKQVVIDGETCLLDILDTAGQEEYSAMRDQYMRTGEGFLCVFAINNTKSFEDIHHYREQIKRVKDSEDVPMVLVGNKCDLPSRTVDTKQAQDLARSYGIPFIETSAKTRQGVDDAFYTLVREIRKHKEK
T3 sequence (P01116 2-169 isoform P01116-2 G12C): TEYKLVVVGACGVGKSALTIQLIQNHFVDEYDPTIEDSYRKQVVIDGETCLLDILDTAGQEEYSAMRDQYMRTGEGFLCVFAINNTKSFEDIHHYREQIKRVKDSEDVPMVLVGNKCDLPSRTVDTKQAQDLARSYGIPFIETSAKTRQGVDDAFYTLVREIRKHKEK
T5 sequence (P01116 2-169 isoform P01116-2): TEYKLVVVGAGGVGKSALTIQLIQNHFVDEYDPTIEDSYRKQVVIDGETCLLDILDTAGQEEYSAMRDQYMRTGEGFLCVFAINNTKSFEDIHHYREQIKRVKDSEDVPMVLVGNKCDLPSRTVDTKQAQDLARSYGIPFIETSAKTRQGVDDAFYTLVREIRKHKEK

Row | SMILES | IC50 (KRAS G12D) [nM] | IC50 (KRAS G12V) [nM] | IC50 (KRAS G12C) [nM] | IC50 (KRAS G13D) [nM] | IC50 (AsPC-1 cells; Homo sapiens, ASPC1, 72 h) [nM] | IC50 (SW480 cells) [nM] | IC50 (KRAS WT) [nM] | IC50 (AsPC-1 cells; 72 hours) [nM]
1 | CCc1c(F)ccc2cc(O)cc(-c3nc4c5c(nc(OC[C@@]67CCCN6C[C@H](F)C7)nc5c3F)N(C(C)c3cccnc3N)CCO4)c12 (mixture of isomers) [Example 14, 4-(10-(1-(2-aminopyridin-3-yl)ethyl)-4-fluoro-2-(((2R,7aS)-2-fluorotetrahydro-1H-pyrrolizin-7a(5H)-yl)methoxy)-9,10-dihydro-8H-7-oxa-1,3,6,10-tetraazacyclohepta[de]naphthalen-5-yl)-5-ethyl-6-fluoronaphthalen-2-ol] | 3.79 | 2.79 | 1.78 | 8.71 | < 1000 | < 1000 | – | –
2 | C[C@H](c1cccnc1N)N1C[C@H](C)Oc2nc(-c3cc(O)cc4ccc(F)c(F)c34)c(F)c3nc(OC[C@@]45CCCN4C[C@H](F)C5)nc1c23 (stereo in doubt) [Example 10a, 4-((S)-10-((R)-1-(2-aminopyridin-3-yl)ethyl)-4-fluoro-2-(((2R,7aS)-2-fluorotetrahydro-1H-pyrrolizin-7a(5H)-yl)methoxy)-8-methyl-9,10-dihydro-8H-7-oxa-1,3,6,10-tetraazacyclohepta[de]naphthalen-5-yl)-5,6-difluoronaphthalen-2-ol] | 3.67 | 1.59 | 0.608 | 6.97 | > 10000 | – | – | –
3 | CCc1c(F)ccc2cc(O)cc(-c3nc4c5c(nc(OC[C@@]67CCCN6C[C@H](F)C7)nc5c3F)N(CC3(N(C)C)CCC3)CCO4)c12 [Example 1, 4-(10-((1-(dimethylamino)cyclobutyl)methyl)-4-fluoro-2-(((2R,7aS)-2-fluorotetrahydro-1H-pyrrolizin-7a(5H)-yl)methoxy)-9,10-dihydro-8H-7-oxa-1,3,6,10-tetraazacyclohepta[de]naphthalen-5-yl)-5-ethyl-6-fluoronaphthalen-2-ol] | 1.26 | 33.4 | – | – | > 10000 | – | 6.22 | –
4 | C#Cc1c(F)ccc2cc(O)cc(-c3nc4c5c(nc(OC[C@@]67CCCN6C[C@H](F)C7)nc5c3F)N(CC3(N(C)C)CCC3)CCO4)c12 [Example 2, 4-(10-((1-(dimethylamino)cyclobutyl)methyl)-4-fluoro-2-(((2R,7aS)-2-fluorotetrahydro-1H-pyrrolizin-7a(5H)-yl)methoxy)-9,10-dihydro-8H-7-oxa-1,3,6,10-tetraazacyclohepta[de]naphthalen-5-yl)-5-ethynyl-6-fluoronaphthalen-2-ol] | 1.34 | – | – | – | 1000 to 10000 | – | – | –
5 | CCc1c(F)ccc2cc(O)cc(-c3nc4c5c(nc(OC[C@@]67CCCN6C[C@H](F)C7)nc5c3F)N(C(C)c3cccnc3N)C[C@H](C)O4)c12 (stereo partly drawn) [Example 3, 4-((8S)-10-(1-(2-aminopyridin-3-yl)ethyl)-4-fluoro-2-(((2R,7aS)-2-fluorotetrahydro-1H-pyrrolizin-7a(5H)-yl)methoxy)-8-methyl-9,10-dihydro-8H-7-oxa-1,3,6,10-tetraazacyclohepta[de]naphthalen-5-yl)-5-ethyl-6-fluoronaphthalen-2-ol] | 8.69 | 3.25 | – | – | > 10000 | – | – | –
6 | CCc1c(F)ccc2cc(O)cc(-c3nc4c5c(nc(OC[C@@]67CCCN6C[C@H](F)C7)nc5c3F)N([C@H](C)c3cccnc3N)C[C@H](C)O4)c12 [Example 3a, 4-((S)-10-((R)-1-(2-aminopyridin-3-yl)ethyl)-4-fluoro-2-(((2R,7aS)-2-fluorotetrahydro-1H-pyrrolizin-7a(5H)-yl)methoxy)-8-methyl-9,10-dihydro-8H-7-oxa-1,3,6,10-tetraazacyclohepta[de]naphthalen-5-yl)-5-ethyl-6-fluoronaphthalen-2-ol] | 5.76 | 2.19 | – | – | > 10000 | – | – | –
7 | CCc1c(F)ccc2cc(O)cc(-c3nc4c5c(nc(OC[C@@]67CCCN6C[C@H](F)C7)nc5c3F)N([C@@H](C)c3cccnc3N)C[C@H](C)O4)c12 [Example 3b, 4-((S)-10-((S)-1-(2-aminopyridin-3-yl)ethyl)-4-fluoro-2-(((2R,7aS)-2-fluorotetrahydro-1H-pyrrolizin-7a(5H)-yl)methoxy)-8-methyl-9,10-dihydro-8H-7-oxa-1,3,6,10-tetraazacyclohepta[de]naphthalen-5-yl)-5-ethyl-6-fluoronaphthalen-2-ol] | 176 | 62.1 | – | – | – | – | – | –
8 | C#Cc1c(F)ccc2cc(O)cc(-c3nc4c5c(nc(OC[C@@]67CCCN6C[C@H](F)C7)nc5c3F)N(C(C)c3cccnc3N)CCO4)c12 (stereo partly drawn) [Example 13, 4-(10-(1-(2-aminopyridin-3-yl)ethyl)-4-fluoro-2-(((2R,7aS)-2-fluorotetrahydro-1H-pyrrolizin-7a(5H)-yl)methoxy)-9,10-dihydro-8H-7-oxa-1,3,6,10-tetraazacyclohepta[de]naphthalen-5-yl)-5-ethynyl-6-fluoronaphthalen-2-ol] | 1.65 | 1.38 | 0.609 | 3.69 | – | < 1000 | – | < 1000
9 | CC(c1cccnc1N)N1CCOc2nc(-c3cc(O)cc4ccc(F)c(F)c34)c(F)c3nc(OC[C@@]45CCCN4C[C@H](F)C5)nc1c23 (stereo partly drawn) [Example 16, 4-(10-(1-(2-aminopyridin-3-yl)ethyl)-4-fluoro-2-(((2R,7aS)-2-fluorotetrahydro-1H-pyrrolizin-7a(5H)-yl)methoxy)-9,10-dihydro-8H-7-oxa-1,3,6,10-tetraazacyclohepta[de]naphthalen-5-yl)-5,6-difluoronaphthalen-2-ol] | 2.35 | 2.3 | 0.916 | 4.94 | < 1000 | < 1000 | – | –
